Laboratory results from patent publication US6699868B2, “Pyridazinyl phenyl hydrazones useful against congestive heart failure” (Orion Corporation, priority 2000, dated 2004).
Read-outs that look alike come from different tables or passages of the source.

Experiments:
[1] = system: isolated heart; experiment: Effect in left ventricular pressure derivatives in isolated heart (Langendorff); conditions: isolated guinea-pig heart, constant pressure 50 mmHg, 37° C., read-out: EC50 on maximal positive derivative of the left ventricular systolic pressure
Experimental: Experiment 2. Effect in left ventricular pressure derivatives in isolated heart
After sacrification the heart of a guinea-pig was rapidly excised and rinsed in oxygenated perfusion buffer. A cannula was inserted into the aorta and secured with a ligature. Retrograde perfusion began as soon as the heart was placed in a thermostatically controlled moist chamber of the Langendorff apparatus (Hugo Sachs Elektronik, KG). Modified Tyrode solution (37° C.), equilibrated in a thermostatically controlled bulb oxygenator with carbogen (95% O2 and 5% CO2), was used as a perfusion buffer. The composition of the Tyrode solution was (in mM): NaCl 135; MgCl2×6H2O 1; KCl 5; CaCl2×2H2O 2; NaHCO3 15; Na2HPO4×2H2O 1; glucose 10; pH 7.3-7.4. The perfusion buffer was delivered at the top of the oxygenator by a pump and driven automatically by its controller. Subsequently, the buffer was delivered into the bulbs of the oxygenator chamber by a rotating disk. It was dispersed by making a thin fluid film on a large inner oxygenator surface in O2/CO2 atmosphere leading to saturation of the perfusate with oxygen (partial pressure 660 mmHg at 37° C.).
The experiments were carried out under constant pressure condition (50 mmHg). After a short prestabilization (10 min) a latex balloon (size 4) was carefully placed into the left ventricle through the left pulmonary vein and the left atrium. The latex balloon was attached to a stainless-steel cannula coupled with a pressure transducer. The latex balloon, the cannula and the chamber of the pressure transducer were carefully filled with ethylene glycol/water (1:1) mixture avoiding any air-bubble. The isovolumetric left ventricular pressure was recorded through the pressure transducer. At the beginning of the experiment, the volume of the balloon was adjusted to obtain a diastolic pressure of approximately 5 mmHg. Before starting the experiment the heart was allowed to stabilise further for 30-50 min. The systolic and end-diastolic left ventricular pressures were recorded for calculating the maximal positive and negative derivatives of the left ventricular pressure.

[2] = system: skinned cardiac fiber; experiment: Calcium sensitizing effect in skinned cardiac fiber; assay type: cell-based, guinea-pig; conditions: test compound 0.1-10 μM added cumulatively, calcium (pCa 6.0 or 6.2)-induced tension, room temperature; for Emax: Cavia porcellus, maximum effect, read-out: Change in force/ % change from control (maximum calcium sensitizing effect in skinned fiber)
Experimental: Experiment 1. Calcium sensitizing effect in skinned cardiac fiber
The heart of a guinea-pig was excised and perfused with ice-cold saponin (125 mg/l) skinning solution consisting of (mM): K^+-acetate 74.7. EGTA-Na2 10, MgSO4 5.4, ATP-Na2 4, MOPS 20, pH 7.0 (by 1 M KOH). Left ventricular papillary muscle was dissected and sonicated at 10 Watt for 60 s. The distance between ultrasound probe and the papillary muscle was 10 mm. The fibres (<200 μm in diameter) were dissected from the surface of sonicated papillary muscles in the same solution.
The fibre was glued between platinum wires, one attached to an isometric force transducer (type AE-801,SensoNor, Horten, Norway) and another to a micro manipulator. The fibre was relaxed in a solution consisting of (mM): EGTA-Na2 10, MgSO4 5.4, ATP-Na2 4, MOPS 20. The pH of the solution was adjusted to 7.0 and ionic strength to 0.16 M by the addition of KOH and K^+-acetate. Creatine kinase and creatine phosphate were not added as an ATP generating system because the developed tension was well sustained for the time required for experiment. The calculations for ionic strength and for free calcium (pCa 7.0-6.2) were performed using a suitable program. The fibres were stretched in relaxing solution until resting tension was just noticeable. When the calcium (pCa 6.0 or 6.2)-induced tension had reached steady state the test compound (final concentrations 0.1, 0.3, 1, 3,and 10 μM) was cumulatively added into the solution at 6 min intervals. All the experiments were carried out with fresh fibres at normal room temperature.

EC50 ([1]; Cavia porcellus) [nM] | melting point [°C] | EC50 [1] [nM] | SMILES | Emax [2] [%] | Change in force/ % change from control (maximum calcium sensitizing effect in skinned fiber) [2] [% change from control]
310 | 235 to 239 | – | COc1c(O)ccc(C=NNc2ccc(C3=NNC(=O)CC3C)cc2)c1[N+](=O)[O-] (stereo not shown) [Example 6, 6-{4-[N′-(4-Hydroxy-3-methoxy-2-nitro-benzylidene)-hydrazino]-phenyl}-5-methyl-4,5-dihydro-2H-pyridazin-3-one] | 32.9 | –
3040 | 303 to 310 | – | Cc1cc(=O)[nH]nc1-c1ccc(NN=Cc2ccc(O)cc2O)cc1 [Example 21, 6-{4-[N′-(2,4-Dihydroxybenzylidene)hydrazino]phenyl}-5-methyl-2H-pyridazin-3-one] | 44.2 | –
710 | 238 to 240 | – | CCc1c(O)ccc(C=NNc2ccc(C3=NNC(=O)CC3C)cc2)c1O (stereo not shown) [Example 40, 6-{4-[N′-(3-Ethyl-2,4-dihydroxy-benzylidene)-hydrazino]-phenyl}-5-methyl-4,5-dihydro-2H-pyridazin-3-one] | 100 | –
400 | 259 to 261 | – | CC(=NNc1ccc(C2=NNC(=O)CC2C)cc1)c1ccc(O)cc1O (stereo not shown) [Example 33, 6-(4-{N′-[1-(2,4-Dihydroxy-phenyl)-ethylidene]-hydrazino}-phenyl)-5-methyl-4,5-dihydro-2H-pyridazin-3-one] | 55.2 | –
110 | – | – | CC1CC(=O)NN=C1c1ccc(NN=C(c2ccc(O)cc2O)c2ccc(O)cc2O)cc1 (stereo not shown) [Example 34, 6-(4-{N′-[Bis-(2,4-dihydroxy-phenyl)-methylene]-hydrazino}-phenyl)-5-methyl-4,5-dihydro-2H-pyridazin-3-one] | 52.8 | –
– | 145 to 155 | – | CC(=O)Nc1ccc(C(C)=NNc2ccc(C3=NNC(=O)CC3C)cc2)cc1 (stereo not shown) [Example 37, N-[4-(1-{[4-(4-Methyl-6-oxo-1,4,5,6-tetrahydro-pyridazin-3-yl)-phenyl]-hydrazono}-ethyl)-phenyl]-acetamide] | 21.7 | –
2470 | – | – | CC(=NNc1ccc(-c2n[nH]c(=O)cc2C)cc1)c1ccc(O)cc1O [Example 23, 6-{4-{N′-[1-(2,4-Dihydroxyphenyl)ethylidene]hydrazino}phenyl}-5-methyl-2H-pyridazin-3-one] | 39.9 | –
– | – | 250 | CC(=NNc1ccc(C2=NNC(=O)CC2C)cc1)c1ccc(O)c(C)c1O (stereo not shown) [Example 49, 6-(4-{N-[1-(2,4-Dihydroxy-3-methylphenyl)ethylidene]hydrazino}phenyl)-5-methyl-4,5-dihydro-2H-pyridazin-3-one] | – | 28.7
310 | 279 to 284 | – | CC(=NNc1ccc(C2=NNC(=O)CC2C)cc1)c1cc(O)ccc1O (stereo not shown) [Example 35, 6-(4-{N′-[1-(2,5-Dihydroxy-phenyl)-ethylidene]-hydrazino}-phenyl)-5-methyl-4,5-dihydro-2H-pyridazin-3-one] | 25.4 | –
– | 266 to 269 | – | Cc1cc(=O)n(C)nc1-c1ccc(NN=Cc2ccc(O)cc2O)cc1 [Example 24, 6-{4-[N′-(2,4-Dihydroxybenzylidene)hydrazino]phenyl}-2,5-dimethyl-2H-pyridazin-3-one] | 42 | –
– | 244 to 248 | – | CC(=NNc1ccc(C2=NNC(=O)CC2C)cc1)c1ccc(O)c(C)c1O (stereo not shown) [Example 38, 6-(4-{N′-[1-(2,4-Dihydroxy-3-methyl-phenyl)-ethylidene]-hydrazino}-phenyl)-5-methyl-4,5-dihydro-2H-pyridazin-3-one] | 32.2 | –
– | 160 to 170 | – | O=c1[nH]nc(-c2ccc(NN=C(c3ccccc3)c3ccc(O)cc3O)cc2)c2ccccc12 [Example 15, 4-(4-{N′-[(2,4-Dihydroxy-phenyl)-phenyl-methylene]-hydrazino}-phenyl)-2H-phthalazin-1-one] | – | –
– | 215 to 218 | – | CC1CC(=O)NN=C1c1ccc(C(=NN)c2ccc(O)c(C(=O)O)c2O)cc1 (stereo not shown) [Example 56, 2,6-Dihydroxy-3-{[4-(4-methyl-6-oxo-1,4,5,6-tetrahydro-pyridazin-3-yl)-phenyl]-hydrazonomethyl}-benzoic acid] | – | –
– | 245 to 247 | – | CC1CC(=O)NN=C1c1ccc(NN=Cc2cccc(O)c2O)cc1 (stereo not shown) [Example 7, 6-{4-[N′-(2,3-Dihydroxy-benzylidene)-hydrazino]-phenyl}-5-methyl-4,5-dihydro-2H-pyridazin-3-one] | – | –
– | 218 | – | CCCCc1c(O)ccc(C=NNc2ccc(C3=NNC(=O)CC3C)cc2)c1O (stereo not shown) [Example 44, 6-{4-[N′-(3-Butyl-2,4-dihydroxy-benzylidene)-hydrazino]-phenyl}-5-methyl-4,5-dihydro-2H-pyridazin-3-one] | – | –
1750 | 160 to 170 | – | CCCc1c(O)ccc(C=NNc2ccc(C3=NNC(=O)CC3C)cc2)c1O (stereo not shown) [Example 43, 6-{4-[N′-(2,4-Dihydroxy-3-propyl-benzylidene)-hydrazino]-phenyl}-5-methyl-4,5-dihydro-2H-pyridazin-3-one] | 39 | –
– | 262 to 266 | – | CCc1c(O)ccc(C=NNc2ccc(-c3ccc(=O)n(C)n3)cc2)c1O [Example 28, 6-{4-[N′-(2,4-Dihydroxy-3-ethylbenzylidene)hydrazino]phenyl}-2-methyl-2H-pyridazin-3-one] | – | –
20 | – | – | COc1c(O)ccc(C=NNc2ccc(C3=NNC(=O)C[C@H]3C)cc2)c1[N+](=O)[O-] [Example 2, (R)-6-{4-[N′-(4-Hydroxy-3-methoxy-2-nitro-benzylidene)-hydrazino]-phenyl}-5-methyl-4,5-dihydro-2H-pyridazin-3-one] | 207 | –
